Measurements from ChEMBL document CHEMBL1201862, “PubChem BioAssay data set” (2004).
Activity calls are given as the source filed them.

Experiments:
[1] = target: T1, Ubiquitin-conjugating enzyme E2 N (Homo sapiens, UniProt P61088); assay type: functional;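 further: Dose-response confirmation in a TR-FRET assay detecting UBC13-driven polyubiquitin chain formation, inhibition measured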
T1 sequence (P61088 whole entry): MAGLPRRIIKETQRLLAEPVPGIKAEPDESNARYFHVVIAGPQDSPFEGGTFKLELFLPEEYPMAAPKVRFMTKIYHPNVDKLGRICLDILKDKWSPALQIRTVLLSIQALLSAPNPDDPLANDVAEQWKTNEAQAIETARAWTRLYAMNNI

[2] = target: DNA repair and recombination protein RAD54-like (Homo sapiens, UniProt Q92698); assay: inhibitors of human RAD54 branch migration, confirmation, biochemical, fluorescence, cherry-picked samples, dose series (AID 651657); assay type: functional
Vero [3] = assay: cytotoxicity of synthesized analogs in Vero cells, SAR follow-up, cytotoxicity control for West Nile virus antiviral project, cell-based, set II (AID 2402); assay type: functional, Chlorocebus sabaeus; settings: Chlorocebus sabaeus, Vero
Vero [4] = assay: Vero E6 cell cytotoxicity, SAR follow-up, cytotoxicity control for West Nile virus antiviral project, synthesized analogs (AID 2244); assay type: functional; settings: Chlorocebus sabaeus
[5] = A Cell Based Assay for the Identification of Probe candidate Compounds with Anti- Venezuelan Equine Encephalitis virus. [Related pubchem assays: 2409, 2419, 1621, 2238, 2405, 2024, 2065, 2402, 2414, 1635, 1650, 2244 ]; assay type: functional
Vero [6] = assay: cytotoxicity of synthesized analogs in Vero 76, SAR follow-up, cytotoxicity control for West Nile virus antiviral project, Vero 76 cells (AID 2414); assay type: functional, Chlorocebus sabaeus; settings: Chlorocebus sabaeus, Vero
[7] = A cytotoxicity screen of small molecule inhibitors of the PhoP region in Salmonella typhi identified in the primary screen. [Related pubchem assays: 1850, 1864, 1985 ]; assay type: functional
[8] = A High Throughput Confirmatory Assay used to Identify Novel Compounds that Inhibit Mycobacterium Tuberculosis in the absence of Glycerol.; assay type: functional
Mucolipin-3 = Mucolipin-3 (Homo sapiens, UniProt Q8TDD5); assay: Dose response cell-based high-throughput screening assay for agonists of the transient receptor potential channel ML3 (TRPML3). [Related pubchem assays: 1526, 1424, 1448 ]; assay type: functional
Ion channel NompC = Ion channel NompC (Danio rerio, UniProt Q7T1G6); assay: Fluorescence counterscreen assay for TRPML3 agonists: dose response cell-based high-throughput screening assay to identify agonists of the transient receptor potential channel N1 (TRPN1). [Related pubchem assays: 1526, 1424, 1448 ]; assay type: functional
[9] = target: Transitional endoplasmic reticulum ATPase (Homo sapiens, UniProt P55072, C522A); assay: C522A mutant p97 ATPase inhibitors, dose response, counter-screen for p97 inhibitor project, biochemical, luminescence (AID 1544)
[10] = target: Transitional endoplasmic reticulum ATPase (Homo sapiens, UniProt P55072); assay: p97 ATPase inhibitors, dose response, biochemical (AID 1534)
[11] = target: Induced myeloid leukemia cell differentiation protein Mcl-1 (Homo sapiens, UniProt Q07820); assay type: functional
[12] = target: Heat shock protein HSP 90-alpha (Homo sapiens, UniProt P07900); assay type: functional, organism-based
Beta-galactosidase = Beta-galactosidase (Escherichia coli, UniProt Q8VNN2); assay: beta-galactosidase enzyme inhibitors and activators, dose response, artefact control for CCR6 antagonist project, biochemical, E. coli enzyme, set 3 (AID 504712); assay type: functional
[13] = target: Glucose-6-phosphate 1-dehydrogenase (Homo sapiens, UniProt P11413); assay: human G6PD enzyme inhibitors, dose response, selectivity assay for P. falciparum G6PD inhibitor project, biochemical, fluorescence (AID 504792); assay type: functional
Glucose-6-phosphate 1-dehydrogenase, sequence (P11413 whole entry): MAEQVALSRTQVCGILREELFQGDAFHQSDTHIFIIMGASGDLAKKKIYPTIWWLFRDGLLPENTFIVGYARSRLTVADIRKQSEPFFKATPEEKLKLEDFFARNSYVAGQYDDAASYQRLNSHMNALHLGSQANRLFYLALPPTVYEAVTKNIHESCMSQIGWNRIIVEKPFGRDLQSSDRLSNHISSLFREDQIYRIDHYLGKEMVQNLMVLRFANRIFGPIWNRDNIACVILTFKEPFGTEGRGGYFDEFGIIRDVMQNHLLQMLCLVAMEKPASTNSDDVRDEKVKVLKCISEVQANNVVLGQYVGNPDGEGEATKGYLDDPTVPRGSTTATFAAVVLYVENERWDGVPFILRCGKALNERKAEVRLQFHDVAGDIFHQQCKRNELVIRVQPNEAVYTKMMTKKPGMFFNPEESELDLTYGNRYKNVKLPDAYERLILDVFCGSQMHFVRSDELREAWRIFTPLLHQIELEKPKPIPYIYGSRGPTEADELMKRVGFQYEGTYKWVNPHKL

Mucolipin-3, sequence (Q8TDD5 whole entry): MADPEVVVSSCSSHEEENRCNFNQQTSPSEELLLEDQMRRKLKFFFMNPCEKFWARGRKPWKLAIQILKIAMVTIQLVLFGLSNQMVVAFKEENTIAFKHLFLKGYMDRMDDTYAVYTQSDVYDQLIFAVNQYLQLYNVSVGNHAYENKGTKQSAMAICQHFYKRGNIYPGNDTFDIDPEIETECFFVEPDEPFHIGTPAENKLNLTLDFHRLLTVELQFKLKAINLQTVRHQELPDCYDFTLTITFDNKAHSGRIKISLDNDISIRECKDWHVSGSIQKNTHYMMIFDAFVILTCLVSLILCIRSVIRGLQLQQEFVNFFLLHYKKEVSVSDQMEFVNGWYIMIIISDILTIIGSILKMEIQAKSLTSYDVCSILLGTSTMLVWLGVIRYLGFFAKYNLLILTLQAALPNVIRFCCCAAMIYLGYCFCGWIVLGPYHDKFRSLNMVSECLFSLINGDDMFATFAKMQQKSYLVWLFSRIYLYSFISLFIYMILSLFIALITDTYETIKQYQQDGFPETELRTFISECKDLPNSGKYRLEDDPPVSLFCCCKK
Ion channel NompC, sequence (Q7T1G6 whole entry): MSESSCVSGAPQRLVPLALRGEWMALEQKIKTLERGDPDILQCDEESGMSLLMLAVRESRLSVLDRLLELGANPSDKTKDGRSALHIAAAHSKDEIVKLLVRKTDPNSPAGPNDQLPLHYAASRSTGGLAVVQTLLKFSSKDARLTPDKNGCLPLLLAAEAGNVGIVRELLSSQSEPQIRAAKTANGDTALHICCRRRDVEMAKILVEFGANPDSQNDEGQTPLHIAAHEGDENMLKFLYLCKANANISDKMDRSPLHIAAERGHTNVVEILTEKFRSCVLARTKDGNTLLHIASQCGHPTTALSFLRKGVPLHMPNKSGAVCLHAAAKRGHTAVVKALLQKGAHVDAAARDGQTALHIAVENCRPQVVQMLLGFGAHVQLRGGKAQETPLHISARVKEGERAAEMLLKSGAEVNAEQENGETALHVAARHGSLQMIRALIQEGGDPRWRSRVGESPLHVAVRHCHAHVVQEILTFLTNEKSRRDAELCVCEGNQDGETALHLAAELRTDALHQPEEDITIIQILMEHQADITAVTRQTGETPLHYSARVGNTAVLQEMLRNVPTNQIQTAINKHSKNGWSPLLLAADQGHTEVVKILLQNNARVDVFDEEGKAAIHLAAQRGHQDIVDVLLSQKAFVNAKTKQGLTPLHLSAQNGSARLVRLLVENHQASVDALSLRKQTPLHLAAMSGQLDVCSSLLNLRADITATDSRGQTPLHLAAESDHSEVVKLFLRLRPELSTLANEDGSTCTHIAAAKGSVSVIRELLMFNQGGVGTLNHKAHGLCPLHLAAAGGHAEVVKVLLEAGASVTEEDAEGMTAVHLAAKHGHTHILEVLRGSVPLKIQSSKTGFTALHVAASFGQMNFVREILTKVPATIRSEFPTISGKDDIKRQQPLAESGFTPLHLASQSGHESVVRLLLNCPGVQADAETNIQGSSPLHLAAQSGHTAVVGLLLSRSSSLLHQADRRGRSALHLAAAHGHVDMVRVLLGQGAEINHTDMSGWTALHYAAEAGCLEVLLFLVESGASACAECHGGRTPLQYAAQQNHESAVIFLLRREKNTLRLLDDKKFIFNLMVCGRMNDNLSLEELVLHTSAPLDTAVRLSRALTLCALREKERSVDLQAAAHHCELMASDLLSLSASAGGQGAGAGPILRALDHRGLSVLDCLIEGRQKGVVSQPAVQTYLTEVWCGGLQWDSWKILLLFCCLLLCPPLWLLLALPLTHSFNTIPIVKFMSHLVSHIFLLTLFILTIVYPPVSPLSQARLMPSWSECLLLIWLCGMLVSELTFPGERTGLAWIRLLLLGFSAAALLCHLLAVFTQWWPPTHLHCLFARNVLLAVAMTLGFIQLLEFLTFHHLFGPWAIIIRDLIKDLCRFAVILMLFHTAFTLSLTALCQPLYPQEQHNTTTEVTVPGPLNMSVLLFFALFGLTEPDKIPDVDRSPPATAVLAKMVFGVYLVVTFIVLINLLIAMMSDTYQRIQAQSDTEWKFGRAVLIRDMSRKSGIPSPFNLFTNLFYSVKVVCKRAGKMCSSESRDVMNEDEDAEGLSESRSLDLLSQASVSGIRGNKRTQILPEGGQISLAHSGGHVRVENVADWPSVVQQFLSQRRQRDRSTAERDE
Transitional endoplasmic reticulum ATPase (Homo sapiens, UniProt P55072), sequence (P55072 whole entry): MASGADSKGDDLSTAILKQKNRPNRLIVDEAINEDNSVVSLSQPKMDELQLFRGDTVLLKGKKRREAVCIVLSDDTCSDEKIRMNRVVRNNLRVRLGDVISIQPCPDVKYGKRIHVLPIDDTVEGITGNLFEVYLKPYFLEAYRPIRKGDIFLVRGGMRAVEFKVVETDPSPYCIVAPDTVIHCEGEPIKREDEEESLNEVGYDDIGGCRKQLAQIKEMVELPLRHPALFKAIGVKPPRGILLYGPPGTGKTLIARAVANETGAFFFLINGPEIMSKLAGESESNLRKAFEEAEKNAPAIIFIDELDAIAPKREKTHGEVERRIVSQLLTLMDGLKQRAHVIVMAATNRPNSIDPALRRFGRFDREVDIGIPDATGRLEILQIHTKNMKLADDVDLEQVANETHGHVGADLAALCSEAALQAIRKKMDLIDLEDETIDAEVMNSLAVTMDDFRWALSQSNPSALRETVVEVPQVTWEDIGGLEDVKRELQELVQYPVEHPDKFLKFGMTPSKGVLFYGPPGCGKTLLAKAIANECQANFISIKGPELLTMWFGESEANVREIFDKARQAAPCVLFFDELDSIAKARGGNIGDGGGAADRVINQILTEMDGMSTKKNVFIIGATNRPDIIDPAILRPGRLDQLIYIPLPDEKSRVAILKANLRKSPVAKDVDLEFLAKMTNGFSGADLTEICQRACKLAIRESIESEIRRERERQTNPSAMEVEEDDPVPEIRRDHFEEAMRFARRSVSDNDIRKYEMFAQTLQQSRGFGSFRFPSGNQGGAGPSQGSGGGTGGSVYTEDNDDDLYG
Beta-galactosidase, sequence (Q8VNN2 whole entry): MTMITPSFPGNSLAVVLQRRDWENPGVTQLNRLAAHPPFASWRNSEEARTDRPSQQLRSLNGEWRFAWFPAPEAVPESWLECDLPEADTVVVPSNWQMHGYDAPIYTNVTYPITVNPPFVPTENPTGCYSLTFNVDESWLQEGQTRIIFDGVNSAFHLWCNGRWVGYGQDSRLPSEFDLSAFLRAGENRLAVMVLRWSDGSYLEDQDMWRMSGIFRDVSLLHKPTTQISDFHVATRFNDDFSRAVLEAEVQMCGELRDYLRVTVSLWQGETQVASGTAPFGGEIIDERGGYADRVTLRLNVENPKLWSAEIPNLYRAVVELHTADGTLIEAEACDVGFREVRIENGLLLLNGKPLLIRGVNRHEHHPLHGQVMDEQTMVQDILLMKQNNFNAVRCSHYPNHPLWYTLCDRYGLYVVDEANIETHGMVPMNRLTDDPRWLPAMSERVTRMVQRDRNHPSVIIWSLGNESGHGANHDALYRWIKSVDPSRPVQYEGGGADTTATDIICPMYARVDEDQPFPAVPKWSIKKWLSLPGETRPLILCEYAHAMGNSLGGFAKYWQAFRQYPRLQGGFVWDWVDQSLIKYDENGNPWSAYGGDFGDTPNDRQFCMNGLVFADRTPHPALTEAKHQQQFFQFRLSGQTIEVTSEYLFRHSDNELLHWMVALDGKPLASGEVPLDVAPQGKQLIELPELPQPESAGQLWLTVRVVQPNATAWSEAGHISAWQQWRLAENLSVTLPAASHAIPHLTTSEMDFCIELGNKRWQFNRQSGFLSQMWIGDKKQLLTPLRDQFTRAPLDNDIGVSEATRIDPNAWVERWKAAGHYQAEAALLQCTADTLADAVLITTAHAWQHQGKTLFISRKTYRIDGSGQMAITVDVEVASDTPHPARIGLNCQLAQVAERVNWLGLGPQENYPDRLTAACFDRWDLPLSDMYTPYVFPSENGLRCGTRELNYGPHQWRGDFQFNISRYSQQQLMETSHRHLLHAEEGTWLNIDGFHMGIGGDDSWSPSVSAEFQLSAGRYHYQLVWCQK
Induced myeloid leukemia cell differentiation protein Mcl-1, sequence (Q07820 whole entry): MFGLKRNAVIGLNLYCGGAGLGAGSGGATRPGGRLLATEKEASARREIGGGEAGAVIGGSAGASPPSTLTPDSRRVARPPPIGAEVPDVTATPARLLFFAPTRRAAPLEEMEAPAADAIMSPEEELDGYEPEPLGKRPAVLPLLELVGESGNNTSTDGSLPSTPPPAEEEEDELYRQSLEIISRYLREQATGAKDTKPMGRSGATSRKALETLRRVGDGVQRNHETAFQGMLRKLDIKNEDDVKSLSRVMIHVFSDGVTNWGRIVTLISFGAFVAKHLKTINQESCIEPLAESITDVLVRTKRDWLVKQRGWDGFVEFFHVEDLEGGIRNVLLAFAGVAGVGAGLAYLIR

Cc1cccc2c1-c1sc(C(=O)NCCCN3CCCC(C)C3)cc1CO2 (stereo not drawn)
IC50 [1]: > 20 µM (inactive) | AC50 [2]: 90.1 µM (active) | CC50 (Vero [3]): 6.26 µM (active) | CC50 (Vero [4]): 4.45 µM (active) | IC50 [5]: 6 µM (active) | CC50 (Vero [6]): 19.4 µM (active)

COc1ccc(-c2cnc(NCc3cc4c(cc3[N+](=O)[O-])OCO4)n2C)cc1
EC50 [7]: > 50 µM (active)

Cc1ccc(NC(=O)c2sccc2-n2cccc2)c(C)c1
IC50 [8]: > 100 µM (active)

COc1cc(S(=O)(=O)N2CCCCCC2)ccc1Cl
EC50 (Mucolipin-3): 1.9 µM (active) | EC50 (Ion channel NompC): > 29.9 µM (not active)

CSC1=NSC2=NC(=O)/C(=C\c3c(C)[nH]c4ccccc34)C(=N)N12
IC50 [9]: > 50 µM (not active) | IC50 [10]: 21.7 µM (not active)

Cc1ccc(NC(=O)c2cc(N3C(=O)C=CC3=O)ccc2Cl)cc1C
IC50 [11]: 5.4 µM (active) | AC50 [12]: 1.5 µM (active) | IC50 (Beta-galactosidase): > 66.6 µM (inactive) | IC50 [13]: 50 µM (inactive)

CCN(CC)C(=O)CC1(c2ccccc2OC)CCOC(C(C)C)C1 (stereo not drawn)
EC50 (Mucolipin-3): 6.96 µM (active) | EC50 (Ion channel NompC): > 29.9 µM (not active)
